Like-named read-outs stand apart in the source and are kept apart here.
Key:
Assay type in all cases: in vivo
[1] = test system: Amaranthus retroflexus (AMARE); assay: Post-emergence herbicidal action against AMARE
Outline: (§1)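 Post-emergence greenhouse spray, one-leaf stage, 600 l/ha water plus 0.5% additive; WP or EC formulations; application rates 320 g/ha or lower. Visual % damage vs untreated controls at ~3 weeks.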

Setaria viridis (SETVI) [2] = assay: Pre-emergence herbicidal action against SETVI; conditions: dosage 320 g/ha
Outline: (§2)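 Seeds sown in pots and covered with soil; WP or EC formulations sprayed onto the soil surface at 600 l/ha water with 0.5% additive, at 320 g/ha or lower. Greenhouse growth for about 3 weeks, then visual scoring as % effect against untreated controls (100% = plants dead).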

Oryza sativa (ORYSA) [3] = conditions: pre-emergence, crop plant compatibility, in comparison to untreated controls
Outline: (§3)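 Crop injury rated visually in percent against untreated plants roughly 3 weeks after treatment (0% no effect, 100% plants dead). Compounds, as WP or EC with 0.5% additive in 600 l/ha water, were applied to the covering soil right after sowing; greenhouse growth. Suffixes a, b, c denote different dosages.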

[4] = test system: Triticum aestivum (TRZAS); conditions: pre-emergence, crop plant compatibility, in comparison to untreated controls
Outline: as §3

Zea mays (ZEAMX) [5] = conditions: pre-emergence, crop plant compatibility, in comparison to untreated controls
Outline: as §3

[6] = test system: Amaranthus retroflexus (AMARE); assay: Pre-emergence herbicidal action against AMARE; conditions: 320 g/ha, visual scoring after about 3 weeks vs untreated controls
Outline: as §2

Oryza sativa (ORYSA) [7] = conditions: crop plant compatibility, effect in comparison to untreated controls
Outline: (§4)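 Foliar application at the one-leaf stage: WP/EC formulation, 0.5% additive, 600 l/ha water. Greenhouse-grown in sandy loam. Endpoint is visual % injury relative to untreated controls at about 3 weeks.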

[8] = test system: Triticum aestivum (TRZAS); conditions: crop plant compatibility, effect vs untreated controls
Outline: as §4

Zea mays (ZEAMX) [9] = conditions: crop plant compatibility, effect vs untreated controls
Outline: as §4

[10] = test system: Verconica persica (VERPE); assay: Pre-emergence herbicidal action against VERPE
Outline: as §2

Viola tricolor (VIOTR) = assay: Post-emergence herbicidal action against VIOTR; conditions: 320 g/ha
Outline: as §1

Lolium rigidum (LOLRI) [11] = assay: Post-emergence herbicidal action against LOLRI; conditions: dosage 320 g/ha
Outline: as §1

[12] = test system: Abutilon theophrasti (ABUTH); assay: Post-emergence herbicidal action against ABUTH; conditions: 320 g/ha, visual rating about 3 weeks after treatment vs untreated controls (100% = plants have died, 0% = like control plants)
Outline: as §1

[13] = test system: Echinochloa crus-galli (ECHCG); assay: Pre-emergence herbicidal action against ECHCG; conditions: dosage 320 g/ha
Outline: as §2

[14] = test system: Pharbitis purpurea (PHBPU); assay: Post-emergence herbicidal action against PHBPU
Outline: as §1

[15] = test system: Matricaria inodora (MATIN); assay: Pre-emergence herbicidal action against MATIN; conditions: dosage 320 g/ha
Outline: as §2

[16] = test system: Alopecurus myosuroides (ALOMY); assay: Pre-emergence herbicidal action against ALOMY; conditions: 320 g/ha; scored visually after about 3 weeks; 100% = plants have died
Outline: as §2

[17] = test system: Polygonum convolvulus (POLCO); assay: Post-emergence herbicidal action against POLCO; conditions: dosage 320 g/ha
Outline: as §1

Setaria viridis (SETVI) [18] = assay: Post-emergence herbicidal action against SETVI; conditions: dosage 320 g/ha
Outline: as §1

[19] = test system: Alopecurus myosuroides (ALOMY); assay: Post-emergence herbicidal action against ALOMY; conditions: 320 g/ha, visual rating about 3 weeks after treatment vs untreated controls (100% = plants have died, 0% = like control plants)
Outline: as §1

[20] = test system: Verconica persica (VERPE); assay: Post-emergence herbicidal action against VERPE; conditions: 320 g/ha, VERPE
Outline: as §1

[21] = test system: Echinochloa crus-galli (ECHCG); assay: Post-emergence herbicidal action against ECHCG; conditions: dosage 320 g/ha
Outline: as §1

[22] = test system: Pharbitis purpurea (PHBPU); assay: Pre-emergence herbicidal action against PHBPU; conditions: dosage 320 g/ha
Outline: as §2

Lolium rigidum (LOLRI) [23] = assay: Pre-emergence herbicidal action against LOLRI; conditions: dosage 320 g/ha
Outline: as §2

[24] = 320 g/ha, visual rating about 3 weeks after treatment

In the case of `O=C(O)COc1nn(-c2ccnc(F)c2)c(-c2ccc(F)nc2)c1Br` [III-02], the “Post-emergence action against AMARE in %” value [1, 24] is reported as 80%, the “Pre-emergence action against SETVI in %” value (Setaria viridis (SETVI) [2]) is reported as 80% and the “Pre-emergence action against ORYSA in %” value (Oryza sativa (ORYSA) [3]; 80 g/ha) is reported as 0%. For the same compound, the “Pre-emergence action against ORYSA in %” value (Oryza sativa (ORYSA) [3]; 320 g/ha) was 0%, the “Pre-emergence action against TRZAS in %” value ([4]; 80 g/ha) was 0% and the “Pre-emergence action against TRZAS in %” value ([4]; 320 g/ha) was 20%. For the same compound, the “Pre-emergence action against ZEAMX in %” value (Zea mays (ZEAMX) [5]; 80 g/ha) was 20%, the “Pre-emergence action against AMARE in %” value [6] was 80% and the “Post-emergence action against ORYSA in %” value (Oryza sativa (ORYSA) [7]; 80 g/ha) was 0%. For the same compound, the “Post-emergence action against ORYSA in %” value (Oryza sativa (ORYSA) [7]; 320 g/ha) was 20%, the “Post-emergence action against TRZAS in %” value ([8]; 80 g/ha) was 20% and the “Post-emergence action against ZEAMX in %” value (Zea mays (ZEAMX) [9]; 80 g/ha) was 10%. The “Post-emergence action against ZEAMX in %” value (Zea mays (ZEAMX) [9]; 320 g/ha) was 20%.

With `COC(=O)[C@H](C)NC(=O)COc1nn(-c2ccnc(F)c2)c(-c2ccc(F)nc2)c1Br` [III-28] the “Post-emergence action against AMARE in %” value ([1]; 80 g/ha, visual rating about 3 weeks after treatment vs untreated controls (100% = plants have died, 0% = like control plants)) was 80%, the “Post-emergence action against AMARE in %” value [1, 24] was 80% and the “Pre-emergence action against ORYSA in %” value (Oryza sativa (ORYSA) [3]; 80 g/ha) was 0%. For the same compound, the “Pre-emergence action against ORYSA in %” value (Oryza sativa (ORYSA) [3]; 320 g/ha) was 10%, the “Pre-emergence action against TRZAS in %” value ([4]; 80 g/ha) was 0% and the “Pre-emergence action against ZEAMX in %” value (Zea mays (ZEAMX) [5]; 80 g/ha) was 0%. For the same compound, the “Pre-emergence action against ZEAMX in %” value (Zea mays (ZEAMX) [5]; 320 g/ha) was 10%, the “Pre-emergence action against AMARE in %” value [6] was 80% and the “Pre-emergence action against VERPE in %” value ([10]; dosage 320 g/ha) was 80%. For the same compound, the “Post-emergence action against ORYSA in %” value (Oryza sativa (ORYSA) [7]; 80 g/ha) was 0%, the “Post-emergence action against ORYSA in %” value (Oryza sativa (ORYSA) [7]; 320 g/ha) was 0% and the “Post-emergence action against ZEAMX in %” value (Zea mays (ZEAMX) [9]; 80 g/ha) was 0%. For the same compound, the “Post-emergence action against ZEAMX in %” value (Zea mays (ZEAMX) [9]; 320 g/ha) was 0%.

For `Cc1cccc(-n2nc(OCC(=O)O)c(Br)c2-c2ccc(F)nc2)n1` [Example I-376], the “Post-emergence action against VIOTR in %” value (Viola tricolor (VIOTR)) was 80%, the “Post-emergence action against AMARE in %” value [1, 24] was 80% and the “Post-emergence action against LOLRI in %” value (Lolium rigidum (LOLRI) [11]) was 90%. The “Pre-emergence action against SETVI in %” value (Setaria viridis (SETVI) [2]) was 100%, the “Post-emergence action against ABUTH in %” value [12] was 80% and the “Pre-emergence action against ORYSA in %” value (Oryza sativa (ORYSA) [3]; 80 g/ha) was 20%. The “Pre-emergence action against TRZAS in %” value ([4]; 80 g/ha) was 10%, the “Pre-emergence action against ZEAMX in %” value (Zea mays (ZEAMX) [5]; 80 g/ha) was 10% and the “Pre-emergence action against ECHCG in %” value [13] was 90%. For the same compound, the “Post-emergence action against PHBPU in %” value ([14]; dosage 320 g/ha) was 80%, the “Pre-emergence action against AMARE in %” value [6] was 90% and the “Pre-emergence action against MATIN in %” value [15] was 80%. The “Pre-emergence action against ALOMY” value [16] was 80%, the “Post-emergence action against POLCO in %” value [17] was 80% and the “Post-emergence action against SETVI in %” value (Setaria viridis (SETVI) [18]) was 80%. For the same compound, the “Post-emergence action against ALOMY in %” value [19] was 80%, the “Pre-emergence action against VERPE in %” value ([10]; dosage 80 g/ha) was 80% and the “Pre-emergence action against VERPE in %” value ([10]; dosage 320 g/ha) was 80%. The “Post-emergence action against VERPE in %” value [20] was 80%, the “Post-emergence action against ECHCG in %” value [21] was 90% and the “Pre-emergence action against PHBPU in %” value [22] was 90%. The “Post-emergence action against ORYSA in %” value (Oryza sativa (ORYSA) [7]; 80 g/ha) was 0%, the “Post-emergence action against ORYSA in %” value (Oryza sativa (ORYSA) [7]; 320 g/ha) was 20% and the “Post-emergence action against TRZAS in %” value ([8]; 80 g/ha) was 0%. The “Post-emergence action against TRZAS in %” value ([8]; 320 g/ha) was 20%, the “Post-emergence action against ZEAMX in %” value (Zea mays (ZEAMX) [9]; 80 g/ha) was 10% and the “Pre-emergence action against LOLRI in %” value (Lolium rigidum (LOLRI) [23]) was 90%.

`COC(=O)CNC(=O)COc1nn(-c2cccc(C)n2)c(-c2ccc(F)nc2)c1Br` [Example I-357] was tested, and the “Pre-emergence action against ORYSA in %” value (Oryza sativa (ORYSA) [3]; 80 g/ha) was 20%, the “Pre-emergence action against ORYSA in %” value (Oryza sativa (ORYSA) [3]; 320 g/ha) was 20% and the “Pre-emergence action against TRZAS in %” value ([4]; 80 g/ha) was 10%. The “Pre-emergence action against TRZAS in %” value ([4]; 320 g/ha) was 10%, the “Pre-emergence action against ZEAMX in %” value (Zea mays (ZEAMX) [5]; 80 g/ha) was 20% and the “Post-emergence action against PHBPU in %” value ([14]; dosage 80 g/ha) was 80%. The “Post-emergence action against PHBPU in %” value ([14]; dosage 320 g/ha) was 80%, the “Post-emergence action against SETVI in %” value (Setaria viridis (SETVI) [18]) was 80% and the “Post-emergence action against ORYSA in %” value (Oryza sativa (ORYSA) [7]; 80 g/ha) was 0%. The “Post-emergence action against ORYSA in %” value (Oryza sativa (ORYSA) [7]; 320 g/ha) was 10%, the “Post-emergence action against TRZAS in %” value ([8]; 80 g/ha) was 10% and the “Post-emergence action against TRZAS in %” value ([8]; 320 g/ha) was 10%. For the same compound, the “Post-emergence action against ZEAMX in %” value (Zea mays (ZEAMX) [9]; 80 g/ha) was 0% and the “Post-emergence action against ZEAMX in %” value (Zea mays (ZEAMX) [9]; 320 g/ha) was 10%.
